Results from patent US11439707B2, “Hypocrellin derivative substituted both in a peri-position and in 2-position by amino, preparation method, and application thereof” (priority 2017, dated 2022).

What was measured:
[1] = singlet oxygen efficiency test, reference rose bengal; format: physicochemical
[2] = absorption spectrum (maximum absorption wavelength, molar extinction coefficient); format: physicochemical

Row | SMILES | singlet oxygen yield [1] | maximum absorption wavelength [2] | molar extinction coefficient [2]
1 | COC(=O)C(CO)Nc1c2c3c4c(c(OC)c(=O)c5c(O)cc(OC)c(c6c(OC)cc(NC(CO)C(=O)OC)c(c1=O)c63)c54)C(C(C)=O)C(C)=C2 (stereo not drawn) [HB-24c] | 22% | 622 nm | 21,500 M^−1cm^−1
2 | COCCOCCOCCOCCOCCOCCOCCOCCOCCOCCOCCOCCOCCC(=O)OCCOCCNc1c2c3c4c(c(OC)c(=O)c5c(O)cc(OC)c(c6c(OC)cc(NCCOCCOC(=O)CCOCCOCCOCCOCCOCCOCCOCCOCCOCCOCCOCCOCCOC)c(c1=O)c63)c54)CC(C)=C2 [HC-1c-PEG12] | 35% | 626 nm | 32,500 M^−1cm^−1
3 | COc1c2c3c4c(c(NC5CCCCC5C(=O)O)c(=O)c5c(O)cc(OC)c(c6c(OC)cc(NC7CCCCC7C(=O)O)c(c1=O)c63)c54)C=C(C)C2C(C)=O (stereo not drawn) [HB-16d] | 26% | 625 nm | 26,500 M^−1cm^−1
4 | COc1c2c3c4c(c(NO)c(=O)c5c(NO)cc(OC)c(c6c(OC)cc(O)c(c1=O)c63)c54)C=C(C)C2 [HC-37c] | 36% | 624 nm | 34,000 M^−1cm^−1
5 | CCNc1c2c3c4c(c(OC)c(=O)c5c(NC6CCCC6)cc(OC)c(c6c(OC)c(SCCO)c(O)c(c1=O)c36)c54)C(C(C)=O)C(C)=C2 (stereo not drawn) [HB-S-44d] | 21% | 622 nm | 21,500 M^−1cm^−1
6 | COCCOCCOCCOCCOCCOCCOCCC(=O)OCCOCCNc1c2c3c4c(c(OC)c(=O)c5c(NCCOCCOC(=O)CCOCCOCCOCCOCCOCCOCCOC)cc(OC)c(c6c(OC)cc(O)c(c1=O)c63)c54)CC(C)=C2 [HC-1d-PEG6] | 34% | 622 nm | 34,500 M^−1cm^−1
7 | CCCCCCNc1c2c3c4c(c(OC)c(=O)c5c(O)cc(OC)c(c6c(OC)cc(NCCCCCC)c(c1=O)c63)c54)CC(C)=C2 [HC-34c] | 38% | 624 nm | 32,500 M^−1cm^−1
8 | COCCOCCOCCOCCOCCOCCOCCN1CCC(CNc2c3c4c5c(c(OC)c(=O)c6c(O)cc(OC)c(c7c(OC)cc(NCC8CCN(CCOCCOCCOCCOCCOCCOCCOC)CC8)c(c2=O)c74)c65)C(C(C)=O)C(C)=C3)CC1 (stereo not drawn) [HB-32c-PEG6] | 40% | 632 nm | 33,500 M^−1cm^−1
9 | COCCOCCC(=O)OCCNc1c(NCCOC(=O)CCOCCOC)c2c(=O)cc(OC)c3c4c(OC)cc(=O)c5c(O)c(OC)c6c(c(c1C=C(C)C6)c23)c54 [HC-2a-PEG1] | 30% | 622 nm | 30,000 M^−1cm^−1
10 | COc1c(NCC(=O)O)c2c(=O)cc(OC)c3c4c(OC)cc(=O)c5c(O)c(NCC(=O)O)c6c(c(c1C(C(C)=O)C(C)=C6)c23)c54 (stereo not drawn) [HB-7b] | 25% | 622 nm | 28,000 M^−1cm^−1
11 | COc1c(O)c2c(=O)cc(OC)c3c4c(OC)cc(=O)c5c(NO)c(NO)c6c(c(c1CC(C)=C6)c23)c54 [HC-37a] | 32% | 620 nm | 30,500 M^−1cm^−1
12 | COCCOCCOCCOCCOCCOCCOCCC(=O)OC1CCC(Nc2c3c4c5c(c(OC)c(=O)c6c(NC7CCC(OC(=O)CCOCCOCCOCCOCCOCCOCCOC)C7)cc(OC)c(c7c(OC)cc(O)c(c2=O)c74)c65)C(C(C)=O)C(C)=C3)C1 (stereo not drawn) [HB-20d-PEG6] | 32% | 630 nm | 30,500 M^−1cm^−1
13 | COc1c(O)c2c(=O)cc(OC)c3c4c(OC)cc(=O)c5c(NCCCC(=O)NCCS(=O)(=O)O)c(NCCCC(=O)NCCS(=O)(=O)O)c6c(c(c1CC(C)=C6)c23)c54 [HC-8a-NH—C2-SO3H] | 32% | 620 nm | 31,000 M^−1cm^−1
14 | COc1c(O)c2c(=O)cc(OC)c3c4c(OC)c(Br)c(=O)c5c(NCCNCCOCCO)c(NCCNCCOCCO)c6c(c(c1C(C(C)=O)C(C)=C6)c23)c54 (stereo not drawn) [HB-5a-Br-PEG1] | 28% | 622 nm | 30,500 M^−1cm^−1
15 | COc1c2c3c4c(c(NCCCCCC(=O)O)c(=O)c5c(NCCCCCC(=O)O)cc(OC)c(c6c(OC)cc(O)c(c1=O)c63)c54)C=C(C)C2 [HC-9c] | 29% | 628 nm | 27,000 M^−1cm^−1
16 | COCCOCCOCCOCCOCCOCCOCCOCCOCCOCCOCCOCCOCCC(=O)N1CCC(CNc2c3c4c5c(c(OC)c(=O)c6c(NCC7CCN(C(=O)CCOCCOCCOCCOCCOCCOCCOCCOCCOCCOCCOCCOCCOC)CC7)cc(OC)c(c7c(OC)c(Br)c(O)c(c2=O)c47)c65)C(C(C)=O)C(C)=C3)CC1 (stereo not drawn) [HB-31d-Br-PEG12] | 33% | 632 nm | 31,500 M^−1cm^−1
17 | CCCCCCNc1c(O)c2c(=O)cc(OC)c3c4c(OC)cc(=O)c5c(NCCCCCC)c(OC)c6c(c(c1C=C(C)C6)c23)c54 [HC-34b] | 32% | 620 nm | 31,500 M^−1cm^−1

Row | SMILES | singlet oxygen yield [1] | maximum absorption wavelength [2] | molar extinction coefficient [2]
18 | COc1c(NCCCCS(=O)(=O)O)c2c(=O)cc(OC)c3c4c(OC)cc(=O)c5c(O)c(NCCCCS(=O)(=O)O)c6c(c(c1C(C(C)=O)C(C)=C6)c23)c54 (stereo not drawn) [HB-11b-C4-SO3H] | 34% | 620 nm | 30,500 M^−1cm^−1
19 | COCCOC(=O)C1(Nc2c(NC3(C(=O)OCCOC)CC3)c3c(=O)cc(OC)c4c5c(OC)cc(=O)c6c(O)c(OC)c7c(c(c2C=C(C)C7)c34)c65)CC1 [HC-35a-PEG1] | 32% | 622 nm | 31,000 M^−1cm^−1
20 | COc1c(O)c2c(=O)cc(OC)c3c4c(OC)cc(=O)c5c(NC(CCC(=O)O)C(=O)O)c(NC(CCC(=O)O)C(=O)O)c6c(c(c1C(C(C)=O)C(C)=C6)c23)c54 (stereo not drawn) [HB-28a] | 18% | 621 nm | 20,500 M^−1cm^−1
21 | COc1c2c3c4c(c(NCCCCCCS(=O)(=O)O)c(=O)c5c(NCCCCCCS(=O)(=O)O)cc(OC)c(c6c(OC)cc(O)c(c1=O)c63)c54)C=C(C)C2C(C)=O (stereo not drawn) [HB-11c-C6-SO3H] | 38% | 626 nm | 31,500 M^−1cm^−1
22 | COCCOCCOCCOCCOCCOCCOC(=O)CCCNc1c2c3c4c(c(OC)c(=O)c5c(NCCCC(=O)OCCOCCOCCOCCOCCOCCOC)cc(OC)c(c6c(OC)cc(O)c(c1=O)c63)c54)C(C(C)=O)C(C)=C2 (stereo not drawn) [HB-8d-PEG6] | 32% | 620 nm | 31,500 M^−1cm^−1
23 | COc1c2c3c4c(c(NC(CO)C(=O)O)c(=O)c5c(NC(CO)C(=O)O)cc(OC)c(c6c(OC)cc(O)c(c1=O)c63)c54)C=C(C)C2C(C)=O (stereo not drawn) [HB-23c] | 22% | 622 nm | 22,000 M^−1cm^−1
24 | COc1c(NC(C(=O)O)C(C)C)c2c(=O)cc(OC)c3c4c(OC)cc(=O)c5c(O)c(NC(C(=O)O)C(C)C)c6c(c(c1C(C(C)=O)C(C)=C6)c23)c54 (stereo not drawn) [HB-22b] | 19% | 618 nm | 21,000 M^−1cm^−1
25 | COCCOCCOCCOCCOCCOCCOCCOCCOCCNC(=O)C1CCC(CNc2c3c4c5c(c(OC)c(=O)c6c(NCC7CCC(C(=O)NCCOCCOCCOCCOCCOCCOCCOCCOCCOC)CC7)cc(OC)c(c7c(OC)cc(O)c(c2=O)c74)c65)CC(C)=C3)CC1 (stereo not drawn) [HC-13d-NH-PEG8] | 30% | 625 nm | 32,500 M^−1cm^−1
26 | COc1c(O)c2c(=O)cc(OC)c3c4c(OC)cc(=O)c5c(NCCCC(=O)O)c(NCC(=O)O)c6c(c(c1C(C(C)=O)C(C)=C6)c23)c54 (stereo not drawn) [HB-43a] | 28% | 613 nm | 26,500 M^−1cm^−1
27 | COc1c2c3c4c(c(NCC5CCC(C(=O)O)CC5)c(=O)c5c(O)cc(OC)c(c6c(OC)cc(NCC7CCC(C(=O)O)CC7)c(c1=O)c63)c54)C=C(C)C2C(C)=O (stereo not drawn) [HB-13d] | 28% | 621 nm | 28,000 M^−1cm^−1
28 | COCCOCCC(=O)OCCOCCNc1c(NCCOCCOC(=O)CCOCCOC)c2c(=O)cc(OC)c3c4c(OC)cc(=O)c5c(O)c(OC)c6c(c(c1C=C(C)C6C(C)=O)c23)c54 (stereo not drawn) [HB-1a-PEG1] | 35% | 625 nm | 31,000 M^−1cm^−1
29 | COc1c(NO)c2c(=O)cc(OC)c3c4c(OC)cc(=O)c5c(O)c(NO)c6c(c(c1CC(C)=C6)c23)c54 [HC-37b] | 31% | 622 nm | 31,500 M^−1cm^−1
30 | COc1c2c3c4c(c(NCCCC(=O)O)c(=O)c5c(O)cc(OC)c(c6c(OC)cc(NCCCC(=O)O)c(c1=O)c63)c54)C=C(C)C2C(C)=O (stereo not drawn) [HB-8d] | 26% | 624 nm | 29,000 M^−1cm^−1
31 | COc1c2c3c4c(c(NCC5CCC(C(=O)NCCCCCCS(=O)(=O)O)CC5)c(=O)c5c(NCC6CCC(C(=O)NCCCCCCS(=O)(=O)O)CC6)cc(OC)c(c6c(OC)cc(O)c(c1=O)c63)c54)C=C(C)C2 (stereo not drawn) [HC-13c-C6-SO3H] | 36% | 630 nm | 33,000 M^−1cm^−1
32 | COc1c(O)c2c(=O)cc(OC)c3c4c(OC)cc(=O)c5c(NCC6CCC(C(=O)O)CC6)c(NCC6CCC(C(=O)O)CC6)c6c(c(c1C(C(C)=O)C(C)=C6)c23)c54 (stereo not drawn) [HB-13a] | 28% | 621 nm | 28,500 M^−1cm^−1
33 | COc1c(NCCCC(=O)OCCCC[N+](C)(C)C)c2c(=O)cc(OC)c3c4c(OC)cc(=O)c5c(O)c(NCCCC(=O)OCCCC[N+](C)(C)C)c6c(c(c1CC(C)=C6)c23)c54 [HC-8b-C4-N^+] | 32% | 625 nm | 31,000 M^−1cm^−1
